Patent publication US6506769B2, “Heterocyclic compounds useful as inhibitors of tyrosine kinases” (Boehringer Ingelheim Pharmaceuticals, Inc., priority 1999, dated 2003)

For Cc1c(/C=C/CO)[nH]c(=O)c2c1ccc1nc(Nc3c(Cl)cccc3Cl)n(C)c12 [Example 14, 2-(2,6-Dichlorophenylamino)-1,6-dimethyl-7-(3-hydroxy-propen-1-yl)-1,8-dihydro-imidazo[4,5-h]isoquinolin-9-one], the melting point was 298 to 300 °C.
Cc1c(/C=C/CN2CCOCC2)[nH]c(=O)c2c1ccc1nc(Nc3c(Cl)cccc3Cl)n(C)c12 [Example 18, 2-(2,6-Dichlorophenylamino)-1,6-dimethyl-7-(3-morpholin-4-yl-propen-1-yl)-1,8-dihydro-imidazo[4,5-h]-isoquinolin-9-one] gave a melting point of 175 to 177 °C.
Compound CC1(C)CNC(=O)c2c1ccc1nc(Nc3c(Cl)cccc3Cl)[nH]c21 [Example 2, 2-(2,6-Dichlorophenylamino)-6,6-dimethyl-7,8-dihydro-1H,6H-imidazo[4,5-h]isoquinoline-9-one] has a melting point of 287 to 290 °C.
With Cc1c(/C=C/CN)[nH]c(=O)c2c1ccc1nc(Nc3c(Cl)cccc3Cl)n(C)c12 [Example 28, 7-(3-Aminopropen-1-yl)-2-(2,6dichlorophenylamino)-1,6-dimethyl-1,8-dihydro-imidazo[4,5-h]-isoquinolin-9-one] the melting point was > 300 °C.
With Cn1c(Nc2c(Cl)cccc2Cl)nc2ccc3c4c([nH]c(=O)c3c21)CCC4 [Example 27, 2-(2,6-Dichlorophenylamino)-3-methyl-5,6,7,8-tetrahydro-3H-1,3,5-triaza-dicyclopenta[a,f]naphthalen-4-one] the melting point was > 300 °C (dec.).
In the case of Cc1[nH]c(=O)c2c(ccc3nc(Nc4c(Cl)cccc4Cl)[nH]c32)c1C [Example 3a, 2-(2,6-Dichlorophenylamino)-6,7-dimethyl-1,8-dihydro-imidazo[4,5-h]isoquinoline-9-one], the melting point is reported as > 300 °C.
In the case of Cc1[nH]c(=O)c2c(ccc3nc(Nc4c(Cl)cccc4Cl)n(C)c32)c1CC(=O)N1CCOCC1 [Example 7, 2-(2,6-Dichlorophenylamino)-1,7-dimethyl-6-(2-morpholin-4-yl-2-oxoethyl)-1,8-dihydro-imidazo[4,5-h]isoquinoline-9-one], the melting point is reported as > 300 °C.
With Cc1[nH]c(=O)c2c(ccc3nc(Nc4c(Cl)cccc4Cl)n(C)c32)c1CCO [Example 10, 2-(2,6-Dichlorophenylamino)-1,7-dimethyl-6-(2-hydroxyethyl)-1,8-dihydro-imidazo[4,5-h]isoquinoline-9-one] the melting point was > 300 °C.
Cc1[nH]c(=O)c2c(ccc3nc(Nc4c(Cl)cccc4Cl)n(C)c32)c1CCN1CCOCC1 [Example 8, 2-(2,6-Dichlorophenylamino)-1,7-dimethyl-6-(2-morpholin-4-yl-ethyl)-1,8-dihydro-imidazo[4,5-h]isoquinoline-9-one] showed a melting point of 285 to 290 °C.
Cc1c(CNCc2ccccc2)[nH]c(=O)c2c1ccc1nc(Nc3c(Cl)cccc3Cl)n(C)c12 [Example 19, 7-Benzylaminomethyl-2-(2,6-dichlorophenylamino)-1,6-dimethyl-1,8-dihydro-imidazo[4,5-h]-isoquinolin-9-one] gave a melting point of 231 to 234 °C.
For O=c1[nH]c2ccccc2c2ccc3nc(Nc4c(Cl)cccc4Cl)[nH]c3c12 [Example 26, 2-(2,6-Dichlorophenylamino)-3,5-dihydro-imidazo[4,5-i]phenanthridin-4-one], the melting point was > 300 °C.
For Cc1c(-c2cncn2C)[nH]c(=O)c2c1ccc1nc(Nc3c(Cl)cccc3Cl)n(C)c12 [Example 21, 2-(2,6-Dichlorophenylamino)-1,6-dimethyl-7-(3-methyl-3H-imidazol-4-yl)-1,8-dihydro-imidazo[4,5-h]isoquinolin-9-one], the melting point was > 300 °C.
For C=Cc1[nH]c(=O)c2c(ccc3nc(Nc4c(Cl)cccc4Cl)n(C)c32)c1C [Example 15, 2-(2,6-Dichlorophenylamino)-1,6-dimethyl-7-vinyl-1,8-dihydro-imidazo[4,5-h]isoquinoline-9-one], the melting point was > 300 °C.
Compound C=CC(O)c1[nH]c(=O)c2c(ccc3nc(Nc4c(Cl)cccc4Cl)n(C)c32)c1C (stereo not shown) [Example 16, 2-(2,6-Dichlorophenylamino)-1,6-dimethyl-7-(1-hydroxyprop-2-en-1-yl)-1,8-dihydro-imidazo[4,5-h]isoquinolin-9-one] has a melting point of 235 to 236 °C.
With COC(=O)/C=C/c1[nH]c(=O)c2c(ccc3nc(Nc4c(Cl)cccc4Cl)n(C)c32)c1C [Example 12, 3-[2-(2,6-Dichlorophenylamino)-1,6-dimethyl-9-oxo-8,9-dihydro-1H-imidazo[4,5-h]isoquinolin-7-yl]-acrylic acid methyl ester] the melting point was > 300 °C.
For Cc1c(-c2cnco2)[nH]c(=O)c2c1ccc1nc(Nc3c(Cl)cccc3Cl)n(C)c12 [Example 20, 2-(2,6-Dichlorophenylamino)-1,6-dimethyl-7-oxazol-5-yl-1,8-dihydro-imidazo[4,5-h]isoquinolin-9-one], the melting point was > 300 °C.
In the case of CCOC(=O)Cc1c(C)[nH]c(=O)c2c1ccc1nc(Nc3c(Cl)cccc3Cl)n(C)c12 [Example 9, 2-(2,6-Dichlorophenylamino)-1,7-dimethyl-9-oxo-1,8-dihydro-imidazo[4,5-h]isoquinolin-6-yl acetic acid ethyl ester], the melting point is reported as 280 to 285 °C (dec.).
Compound CC1(C)C(=O)NC(=O)c2c1ccc1nc(Nc3c(Cl)cccc3Cl)[nH]c21 [Example 1, 2-(2,6-Dichlorophenylamino)-6,6-dimethyl-1H,6H-imidazo[4,5-h]isoquinoline-7,9-dione] has a melting point of 290 to 292 °C.
In the case of CC1(C)C(=O)NC(=O)c2c1ccc1nc(Nc3c(Cl)cccc3Cl)sc21 [Example 5, 2-(2,6-Dichlorophenylamino)-6,6-dimethyl-6H-thiazolo[4,5-h]isoquinoline-7,9-dione], the melting point is reported as > 300 °C.
